Results: patent US10173991B2, “Sulfone amide linked benzothiazole inhibitors of endothelial lipase” (BRISTOL-MYERS SQUIBB COMPANY, priority 2014, dated 2019)
Where two headings read alike, the source gives them in different places.

Target: Endothelial lipase (EL) (Homo sapiens (Human), UniProt Q9Y5X9)
Test: Endothelial lipase (EL) enzymatic assay with fluorescent substrate A10070 in DMPG vesicles
Format: biochemical
Summary of the method: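 Substrate A10070 sits in sonicated DMPG vesicles at 0.11 mole fraction. Lipase and compound preincubated 30 min, 37° C, in HEPES pH 8.0 buffer with CaCl2.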

[1] = EL from conditioned media of HT-1080 cells, 30 min preincubation at 37° C.

Sequence of Endothelial lipase (EL) (Q9Y5X9 21-500): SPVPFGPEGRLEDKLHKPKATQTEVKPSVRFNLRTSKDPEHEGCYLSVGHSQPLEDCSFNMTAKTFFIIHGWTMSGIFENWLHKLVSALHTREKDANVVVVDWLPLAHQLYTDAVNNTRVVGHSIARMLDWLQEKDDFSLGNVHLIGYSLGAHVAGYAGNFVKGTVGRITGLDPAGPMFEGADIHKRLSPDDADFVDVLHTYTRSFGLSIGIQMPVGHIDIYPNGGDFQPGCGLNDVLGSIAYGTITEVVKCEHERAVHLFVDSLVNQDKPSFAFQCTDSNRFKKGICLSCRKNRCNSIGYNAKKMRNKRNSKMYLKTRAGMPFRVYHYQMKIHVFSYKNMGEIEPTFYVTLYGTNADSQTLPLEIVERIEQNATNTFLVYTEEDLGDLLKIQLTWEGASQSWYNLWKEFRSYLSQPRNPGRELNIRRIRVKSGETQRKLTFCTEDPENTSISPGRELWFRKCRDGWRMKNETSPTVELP

IC50 | IC50 [1] | Compound
9 nM |  | O=C(CNC(=O)C(c1nc2ccc(-c3ccc4c(c3)CNC4=O)cc2s1)S(=O)(=O)c1ccc(F)cc1)NC1CC1 (stereo not drawn) [Example 447, N-[(cyclopropyl-carbamoyl)methyl]-2-(4-fluorobenzene-sulfonyl)-2-[6-(1-oxo-2,3-dihydro-1H-isoindol-5-yl)-1,3-benzothiazol-2-yl}acetamide]
 | 0.5 nM | COCCS(=O)(=O)C(C(=O)NCC(=O)NC1CC1)c1nc2cc(F)c(-c3ccc(NC(=O)OCC4CC4)cc3)cc2s1 (stereo not drawn) [Example 525, Cyclopropylmethyl N-{4-[2-({[(cyclopropylcarbamoyl)methyl]carbamoyl}(2-methoxyethanesulfonyl)methyl)-5-fluoro-1,3-benzothiazol-6-yl]phenyl}carbamate]
16 nM |  | CC(C)n1cc(-c2cc(F)c3nc(C(C(=O)NCC(=O)NC4CC4)S(=O)(=O)c4ccc(F)cc4)sc3c2)ccc1=O (stereo not drawn) [Example 470, N-[(cyclopropyl-carbamoyl)methyl]-2-{4-fluoro-6-[6-oxo-1-(propan-2-yl)-1,6-dihydropyridin-3-yl]-1,3-benzothiazol-2-yl}-2-(4-fluorobenzene-sulfonyl)acetamide]
20 nM |  | COCCS(=O)(=O)C(C(=O)NCC(=O)NC1CC1)c1nc2ccc(-c3ccc(C(=O)N4C[C@@H](C)O[C@@H](C)C4)cc3)cc2s1 (stereo partly drawn) [Example 569, N-[(cyclopropyl-carbamoyl)methyl]-2-(6-{4-[(2R,6S)-2,6-dimethyl-morpholine-4-carbonyl]phenyl}-1,3-benzothiazol-2-yl)-2-(2-methoxyethane-sulfonyl)acetamide]
18 nM |  | COCCS(=O)(=O)C(C(=O)NCC(=O)NC1CC1)c1nc2cc(-c3ccc4c(c3)C(=O)NC4)c(F)cc2s1 (stereo not drawn) [Example 350, N-[(cyclopropyl-carbamoyl)methyl]-2-[6-fluoro-5-(3-oxo-2,3-dihydro-1H-isoindol-5-yl)-1,3-benzothiazol-2-yl]-2-(2-methoxyethane-sulfonyl)acetamide]
6 nM |  | O=C(CNC(=O)C(c1nc2ccc(-c3ccc4c(c3)CNC4=O)cc2s1)S(=O)(=O)c1cccnc1)NC1CC1 (stereo not drawn) [Example 468, N-[(cyclopropyl-carbamoyl)methyl]-2-[6-(1-oxo-2,3-dihydro-1H-isoindol-5-yl)-1,3-benzothiazol-2-yl]-2-(pyridine-3-sulfonyl) acetamide]
 | 33 nM | COCCS(=O)(=O)C(C(=O)NCC(=O)NC1CC1)c1nc2ccc(-c3ccc(C(=O)N(C)C4CC4)cc3)cc2s1 (stereo not drawn) [Example 393, N-Cyclopropyl-4-(2-(2-((2-(cyclopropylamino)-2-oxoethyl)amino)-1-((2-methoxyethyl)sulfonyl)-2-oxoethyl)benzo[d]thiazol-6-yl)-N-methylbenzamide]
8 nM |  | O=C(CNC(=O)C(c1nc2cc(F)c(-c3ccc4c(c3)CCCN4C(=O)Cc3c(F)cccc3F)cc2s1)S(=O)(=O)CCC(F)(F)F)NC1CC1 (stereo not drawn) [Example 590, N-[(cyclopropyl-carbamoyl)methyl]-2-(6-{1-[2-(2,6-difluorophenyl)acetyl]-1,2,3,4-tetrahydroquinolin-6-yl}-5-fluoro-1,3-benzothiazol-2-yl)-2-(3,3,3-trifluoropropane-sulfonyl)acetamide]
4 nM |  | COCCOC(=O)Nc1ccc(-c2cc3sc(C(C(=O)NCC(=O)NC4CC4)S(=O)(=O)CCOC)nc3cc2F)cc1 (stereo not drawn) [Example 535, 2-methoxyethyl N-{4-[2-({[(cyclopropyl-carbamoyl)methyl]carbamoyl}(2-methoxyethane-sulfonyl)methyl)-5-fluoro-1,3-benzothiazol-6-yl]phenyl} carbamate]
4 nM |  | COCCS(=O)(=O)C(C(=O)NCC(=O)NC1CC1)c1nc2cc(-c3cccc(C(=O)N4CCOCC4)c3)ccc2s1 (stereo not drawn) [Example 395, N-[(cyclopropyl-carbamoyl)methyl]-2-(2-methoxyethane-sulfonyl)-2-{5-[3-(morpholine-4-arbonyl)phenyl}-1,3-benzothiazol-2-yl}acetamide]
5 nM |  | CC(=O)NCc1ccc(-c2cc3sc(C(C(=O)NCC(=O)NC4CC4)S(=O)(=O)c4cccc(Cl)c4)nc3cc2F)cc1 (stereo not drawn) [Example 444, 2-(3-chlorobenzene-sulfonyl)-N-[(cyclopropyl-carbamoyl)methyl]-2-{6-[4-(acetamidomethyl)phenyl]-5-fluoro-1,3-benzothiazol-2-yl}acetamide]
9 nM |  | O=C(CNC(=O)C(c1nc2cc(F)c(-c3ccc(-n4ccccc4=O)cc3)cc2s1)S(=O)(=O)c1ccc(F)cc1)NC1CC1 (stereo not drawn) [Example 479, N-[(cyclopropyl-carbamoyl)methyl]-2-{5-fluoro-6-[4-(2-oxo-1,2-dihydropyridin-1-yl)phenyl]-1,3-benzothiazol-2-yl}-2-(4-fluorobenzene-sulfonyl)acetamide]

Further lines, the compound ahead of its results:

Compound | IC50 | IC50 [1]
CC(C)S(=O)(=O)C(C(=O)NCC(=O)NC1CC1)c1nc2cc(-c3ccc(F)nc3)ccc2s1 (stereo not drawn) [Example 16, N-[(cyclopropyl-carbamoyl)methyl]-2-[5-(6-fluoropyridin-3-yl)-1,3-benzothiazol-2-yl]-2-(propane-2-sulfonyl) acetamide] | 39 nM | 
COCCS(=O)(=O)C(C(=O)NCC(=O)NC1CC1)c1nc2cc(-c3ccc(NC(=O)OCc4ccccc4)cc3)c(F)cc2s1 (stereo not drawn) [Example 10, benzyl N-{4-[2-({[(cyclopropyl-carbamoyl)methyl]carbamoyl}(2-methoxyethane-sulfonyl)methyl)-6-fluoro-1,3-benzothiazol-5-yl]phenyl} carbamate] | 1 nM | 
COCCS(=O)(=O)C(C(=O)NCC(=O)NC1CC1)c1nc2cc(-c3cccnc3C(F)(F)F)ccc2s1 (stereo not drawn) [Example 61, N-[(cyclopropyl-carbamoyl)methyl]-2-(2-methoxyethane-sulfonyl)-2-{5-[2-(trifluoromethyl)pyridin-3-yl]-1,3-benzothiazol-2-yl}acetamide] | 5 nM | 
CS(=O)(=O)C(C(=O)NCC(=O)NC1CC1)c1nc2cc(F)c(-c3ccc(C(N)=O)cc3)cc2s1 (stereo not drawn) [Example 331, 4-[2-({[(cyclopropyl-carbamoyl)methyl]carbamoyl} (methanesulfonyl)methyl)-5-fluoro-1,3-benzothiazol-6-yl]benzamide] | 4 nM | 
COCCS(=O)(=O)C(C(=O)NCC(=O)NC1CC1)c1nc2cc(F)c(-c3cccc(C(=O)N(C)C)c3)cc2s1 (stereo not drawn) [Example 177, 3-[2-({[(cyclopropyl-carbamoyl)methyl]carbamoyl}(2-methoxyethane-sulfonyl)methyl)-5-fluoro-1,3-benzothiazol-6-yl]-N,N-dimethyl-benzamide] | 51 nM | 
COCCS(=O)(=O)C(C(=O)NCC(=O)NC1CC1)c1nc2cc(C(F)(F)F)c(-c3cccc(C(=O)N(C)C)c3)cc2s1 (stereo not drawn) [Example 157, 3-[2-({[(cyclopropyl-carbamoyl)methyl]carbamoyl}(2-methoxyethane-sulfonyl)methyl)-5-(trifluoromethyl)-1,3-benzothiazol-6-yl]-N,N-dimethylbenzamide] | 11 nM | 
COCCS(=O)(=O)C(C(=O)NCC(=O)NC1CC1)c1nc2cc(-c3ccc(F)cn3)ccc2s1 (stereo not drawn) [Example 90, N-[(cyclopropyl-carbamoyl)methyl]-2-[5-(5-fluoropyridin-2-yl)-1,3-benzothiazol-2-yl]-2-(2-methoxyethane-sulfonyl) acetamide] | 274 nM | 
COCCS(=O)(=O)C(C(=O)NCC(=O)NC1CC1)c1nc2cc(-c3ccc(N4CCCC4)nc3)ccc2s1 (stereo not drawn) [Example 71, N-[(cyclopropyl-carbamoyl)methyl]-2-(2-methoxyethane-sulfonyl)-2-{5-[6-(pyaolidin-1-yl)pyridin-3-yl]-1,3-benzothiazol-2-yl} acetamide] | 25 nM | 
COCCS(=O)(=O)C(C(=O)NCC(=O)NC1CC1)c1nc2cc(C(F)(F)F)c(-c3ccc(F)nc3)cc2s1 (stereo not drawn) [Example 173, N-[(cyclopropyl-carbamoyl)methyl]-2-[6-(6-fluoropyridin-3-yl)-5-(trifluoromethyl)-1,3-benzothiazol-2-yl]-2-(2-methoxyethane-sulfonyl) acetamide] | 32 nM | 
COCCS(=O)(=O)C(C(=O)NCC(=O)NC1CC1)c1nc2cc(-c3ccn(C)c(=O)c3)c(F)cc2s1 (stereo not drawn) [Example 342, N-[(cyclopropyl-carbamoyl)methyl]-2-[6-fluoro-5-(1-methyl-2-oxo-1,2-dihydropyridin-4-yl)-1,3-benzothiazol-2-yl]-2-(2-methoxyethane-sulfonyl)acetamide] | 23 nM | 
CC(C)S(=O)(=O)C(C(=O)NCC(=O)NC1CC1)c1nc2cc(C(F)(F)F)c(-c3ccccc3)cc2s1 (stereo not drawn) [Example 169, N-[(cyclopropyl-carbamoyl)methyl]-2-[6-phenyl-5-(trifluoromethyl)-1,3-benzothiazol-2-yl]-2-(propane-2-sulfonyl) acetamide] | 26 nM | 
COCCS(=O)(=O)C(C(=O)NCC(=O)NC1CC1)c1nc2cc(-c3ccc(F)nc3)c(C)cc2s1 (stereo not drawn) [Example 182, N-[(cyclopropyl-carbamoyl)methyl]-2-[5-(6-fluoropyridin-3-yl)-6-methyl-1,3-benzothiazol-2-yl]-2-(2-methoxyethane-sulfonyl) acetamide] | 21 nM | 
O=C(CNC(=O)C(c1nc2cc(F)c(-c3ccc(-c4ccn[nH]4)cc3)cc2s1)S(=O)(=O)CCC(F)(F)F)NC1CC1 (stereo not drawn) [Example 144, N-[(cyclopropyl-carbamoyl)methyl]-2-{5-fluoro-6-[4-(1H-pyrazol-5-yl)phenyl]-1,3-benzothiazol-2-yl}-2-(3,3,3-trifluoropropane-sulfonyl) acetamide] | 1 nM | 
COCCS(=O)(=O)C(C(=O)NCC(=O)NC1CC1)c1nc2cc(-c3ccc(C(F)(F)F)nc3)ccc2s1 (stereo not drawn) [Example 66] | 12 nM | 
COCCS(=O)(=O)C(C(=O)NCC(=O)NC1CC1)c1nc2cc(C)c(-c3ccc(F)nc3)cc2s1 (stereo not drawn) [Example 185, N-[(cyclopropyl-carbamoyl)methyl]-2-[6-(6-fluoropyridin-3-yl)-5-methyl-1,3-benzothiazol-2-yl]-2-(2-methoxyethane-sulfonyl) acetamide] | 4 nM | 
